Entries after “also recorded” stand apart in the source; their conditions may differ.
How the values were obtained:
[1] = test system: Staphylococcus epidermidis (SE) biofilm; assay: Biofilm eradication by PEMF and Con-A t-MNPs (Example 3, preliminary data); format: cell-based; conditions: PEMF + Con-A t-MNPs + antibiotic (FIG. 9)
Protocol: Using Staphylococcus epidermidis (SE), the biofilm eradication increased over 80% when PEMF was administered at a frequency of 50 kHz and a magnetic field amplitude of 1.2 mT along with t-MNPs functionalized with Concanavalin-A (Con-A) that target components of the bacterial membrane, cell wall, and extracellular matrix.

S. epidermidis biofilms [2] = assay: Crystal violet assay of total biomass of pre-formed S. epidermidis biofilms, PEMF with or without antibiotic (Example 1); format: cell-based, Staphylococcus epidermidis; conditions: for eradication of S. epidermidis biofilm by antibiotic alone: antibiotic alone at MIC, no PEMF, CV and alamarBlue (FIG. 2, FIG. 3); for combined PEMF + antibiotic treatment compared to theoretical additive effect: antibiotic at MIC, all PEMF time points, p<0.001
Protocol: Experiments were performed initially on S. epidermidis strain ATCC 14990 and further tested on S. epidermidis strain ATCC 35984, which is known to be a particularly strong biofilm former (Okajima, Y. et al., 2006, Invest Ophthalmol Vis Sci, 47(7):2971-2975). Trypticase soy broth (TSB) (30 g l^−1 in water, autoclaved at 121° C. for 15 minutes; BD Bacto TSB from Fisher Scientific) was used for in vitro growth of bacterial cell cultures, and 50% glucose was added to the medium at a final concentration of 0.25%. Sterile Falcon 6-well, clear, flat-bottom, tissue culture-treated, cell culture plates (Corning; Lot #1059012) and sterile CELLSTAR cell culture 24-well, PS, clear, tissue culture-treated plates (Greiner; Lot #E100501A) were used for S. epidermidis cell plating and biofilm growth (6-well plates used for crystal violet assay experiments; 24-well plates used for alamarBlue assay experiments).
The PEMF apparatus was custom made in the laboratory and was previously described in Ghalayani Esfahani et al. 2019 (Esfahani, A. et al., 2019, J Appl Microbiol, 126(1):87-101). Briefly, the PEMF apparatus consisted of an acrylic shelved rack with wrap-around Helmholtz coils, a signal generator, and a power supply. […] A digital oscilloscope (TBS1000C, Tektronix, Beaverton, OR) was used to monitor the signal waveform. All plates not under PEMF treatment were kept in a 37° C. incubator, identical temperature to the PEMF incubator.
S. epidermidis biofilms were grown by initially incubating freezer stock S. epidermidis cell scrapings in TSB media at 37° C. for 24 hours with shaking. Subsequently, the cells were diluted 1:100 into TSB media containing 0.25% glucose and then aliquoted, in 3 ml or 1 ml aliquots, into 6-well or 24-well plates, respectively. To test the ability of PEMF to disrupt pre-formed biofilms, inoculated plates were incubated for 24 hours to allow biofilm formation to occur. Negative controls of only TSB media containing 0.25% glucose (i.e., no cells) were also included for all plates to ensure no contamination occurred.
Crystal Violet (CV) assay was utilized to quantify biofilm formation in vitro as previously described (Esfahani, A. et al., 2019, J Appl Microbiol, 126(1):87-101). After incubation of the biofilm in the plates with or without treatment, the media and any non-adhered cells were removed. The well of the plates were then washed with Wash Buffer three times to ensure only biofilm-adhered cells remained. Next, wells were incubated with CV at room temperature for 15 minutes. The CV stain was then removed, and wells were washed twice with water. An 80% ethanol/20% acetone solution was then added and allowed to incubate for 20 minutes at room temperature to solubilize the dye. Absorbance readings were thereafter obtained at 570 nm and recorded for each well (BMG LABTECH, FLUOstar Omega plate reader).
To test possible synergism between PEMF exposure and antibiotic treatment, the MIC of both oxacillin and vancomycin for the specific S. epidermidis strain used was determined. S. epidermidis were first incubated in TSB media at 37° C. for 24 hours with shaking. […] After 24 hours, OD600 readings of the wells were taken. The MIC of each antibiotic was determined to be the lowest concentration to show inhibition of planktonic S. epidermidis cell growth.
To confirm the reproducibility of results, all experiments were run identically at least three times with similar outcomes before results were analyzed and reported. […]

S. epidermidis biofilms [3] = assay: Eradication of pre-formed S. epidermidis biofilm by PEMF + antibiotic on plastic plates (Example 4, Phases 2 and 3); format: cell-based, Staphylococcus epidermidis; conditions: for combined PEMF + antibiotic treatment compared to theoretical additive effect: all time points, plastic 6-well plates; for eradication of S. epidermidis biofilm by antibiotic alone: no PEMF
Protocol: Staphylococcus epidermidis (S. epidermidis) ATCC 14990 was used for the biofilm experiments. The observed results were further confirmed by repeating said tests on S. epidermidis strain ATCC 35984. To test the above model the cells were first grown in Trypticase Soy Broth (TSB) (30 gl^−1 in purified water, autoclaved at 121° C. for 15 min; Becton, Dickinson and Company, Los Angeles, CA). The cells were incubated for 24 hours at 37° C. and then diluted 1:100 into TSB with glucose and plated. Five phases of experiments with this set-up have been successfully completed:
3) Evaluation of PEMFs ability to enhance the efficacy of antibiotic (specifically oxacillin and vancomycin) treatment against fully formed S. epidermidis biofilms on cell culture treated plastic plates.
For the biofilm inhibition experiments PEMF was applied to all experimental plates immediately after the cells were plated, with the […] being placed in a non-treated 37° C. incubator for the duration of treatment. Alternatively, for phases 2-4, cells were plated and then placed back in the non-treated 37° C. incubator for 24 hours (deemed adequate time for a biofilm to fully form through the literature and confirmed by preliminary experiments) before being exposed to PEMF.
In each phase, PEMF exposure was delivered for the following intervals: • 0 hours ([…] group, in 37° C. incubator for entirety of experiment) • 4 hours×2 cycles (exposed to PEMF hours 1-4, placed in 37° C. incubator hours 5-8, exposed to PEMF hours 9-12) • 12 hours continuously • 24 hours continuously
It is important to note that for all phase 3 trials, all PEMF exposure groups were tested as listed and compared to identical PEMF exposure times plus antibiotic. In phase 5 trials, PEMF exposure was delivered for alternate intervals of 0 hours, 3 hours, 6 hours, and 12 hours. This decision was due to the increased biofilm eradication ability of PEMF when combined with magnetic fNPs. As greater eradication was observed, it was deemed relevant to test shorter PEMF exposure intervals that are more applicable in the clinical setting.
At the conclusion of said experiments, crystal violet and alamarBlue assays were used to quantify the remaining viable biofilm in each well, and CFU/ml counts were used to quantify the planktonic (free-living) S. epidermidis cells.
The calculation performed to determine the theoretical additive effect of PEMF+antibiotic treatment and compare to the empirical effect of simultaneous PEMF and antibiotic treatment was a simple probability calculation: P(A)+(1−P(A))*P(B).

[4] = test system: Staph epidermidis biofilm; assay: AlamarBlue biofilm eradication with fNPs or NPs, PEMF and vancomycin (Example 2, Phase I); format: cell-based, Staphylococcus epidermidis
Protocol: A series of experiments were conducted on Staphylococcus epidermidis and aureus. Staph epidermidis cells were grown, diluted, and aliquoted onto cell culture plates. Biofilm was formed by letting the bacteria grow for 48 hrs. in the tissue culture wells. Planktonic cell growth was measured using serial dilutions and subsequently determining CFU/mL counts. Biofilm assay was performed through AlamarBlue cell viability reagent and obtaining fluorescence readings at 544/590 excitation/emission (ex/em). Magnetic nanoparticles functionalized with a lectin, Concanavalin-A, were purchase from Sigma Aldrich. Vancomycin was used as an antibiotic.
Biofilm-containing plates were exposed to different conditions and specifically: • 1) No treatment • 2) Vancomycin alone • 3) PEMF alone • 4) PEMF+Vancomycin • 5) fNPs only (5 different fNPs concentration) • 6) PEMF+fNPs (5 different fNPs concentration) • 7) PEMF+fNPs+Vancomycin (5 different fNPs concentration) • 8) NPs only (5 different fNPs concentration) • 9) PEMF+NPs (5 different fNPs concentration)
The NPs in the functionalized and non-functionalized groups had the same composition and size distribution. PEMF exposure was delivered at 37° C. and various periods: 0 hrs, 6 hrs, and 12 hrs.

Staphylococcal membranes = conditions: within 60 minutes of exposure; cited from earlier work
[5] = up to 20 times its minimum bactericidal concentration; cited from earlier work
[6] = test system: S. aureus (both methicillin- and vancomycin-resistant), S. epidermidis, and P. aeruginosa; conditions: cited from earlier work
mammalian cells = conditions: cited from earlier work

Row | Molecule | change in percentage of eradication when antibiotic was added to the nanoparticles [1] | reduction of total biomass, quantified by CV assay (S. epidermidis biofilms [2]; PEMF 24-hour exposure + antibiotic at MIC simultaneously, pre-formed biofilm, vs 48-hour control group, mean) [%] | eradication of S. epidermidis biofilm by antibiotic alone (S. epidermidis biofilms [2]) | combined PEMF + antibiotic treatment compared to theoretical additive effect (S. epidermidis biofilms [2]) | combined PEMF + antibiotic treatment compared to theoretical additive effect (S. epidermidis biofilms [3]) | eradication of S. epidermidis biofilm by antibiotic alone (S. epidermidis biofilms [3]) | effect on eradication of adding Vancomycin to fNPs + PEMF ([4]; PEMF + fNPs + Vancomycin) | increase in biofilm eradication ([4]; antibiotic used alone) [%] | leakage of preloaded intracellular calcein dye (Staphylococcal membranes) | cytotoxicity levels [5] | antibacterial activity [6] | toxicity to mammalian cells (mammalian cells)
1 | Cc1onc(-c2ccccc2)c1C(=O)N[C@@H]1C(=O)N2[C@@H]1SC(C)(C)[C@@H]2C(=O)O [oxacillin] | only slightly increased | 74 | Neither oxacillin nor vancomycin (FIG. 2, FIG. 3) alone significantly eradicated | synergistically enhanced; also recorded: significantly synergistic | significantly synergistic; also recorded: significant empirical synergism | Neither oxacillin nor vancomycin alone significantly eradicated |  |  |  |  |  | 
2 | CN[C@H](CC(C)C)C(=O)N[C@H]1C(=O)N[C@@H](CC(N)=O)C(=O)N[C@H]2C(=O)N[C@H]3C(=O)N[C@H](C(=O)N[C@H](C(=O)O)c4cc(O)cc(O)c4-c4cc3ccc4O)[C@H](O)c3ccc(c(Cl)c3)Oc3cc2cc(c3O[C@@H]2O[C@H](CO)[C@@H](O)[C@H](O)[C@H]2O[C@H]2C[C@](C)(N)[C@H](O)[C@H](C)O2)Oc2ccc(cc2Cl)[C@H]1O [vancomycin] | only slightly increased |  | Neither oxacillin nor vancomycin (FIG. 2, FIG. 3) alone significantly eradicated | synergistically enhanced; also recorded: significantly synergistic | significantly synergistic | Neither oxacillin nor vancomycin alone significantly eradicated | does not increase much the eradication | 5 |  |  |  | 
3 | WR12: de novo designed synthetic antimicrobial peptide; N-terminal-cysteine form CRWWRWWRRWWRR (SEQ ID NO: 2) (N-terminal cysteine) |  |  |  |  |  |  |  |  | greater than 95% | negligible | potent antibacterial activity | 
4 | LL-37: human cathelicidin antimicrobial peptide; N-terminal-cysteine form CLLGDFFRKSKEKIGKEFKRIVQRIKDFLRNLVPRTES (SEQ ID NO: 1) (N-terminal cysteine) |  |  |  |  |  |  |  |  |  |  |  | non-toxic

From patent US20250276065A1, “Electro Magnetic Transducer Network in the Enhancement of Anti-infective Strategies” (priority 2022, published 2025)
